For 21 compounds, IC50 results are on record in patent US8765741B2, “5,6-dihydro-1H-pyridin-2-one compounds” (Anadys Pharmaceuticals, Inc., priority 2007, dated 2014).

SMILES strings stand for the structures. Where two headings read alike, the source gives them in different places.

This experiment has as its target NS5B polymerase (Hepatitis C virus genotype 1b, UniProt P26663). As to the kind of experiment: biochemical. How it is done: Compounds were tested for HCV polymerase inhibition. Assays were performed in a 96-well streptavidin-coated FlashPlate using 20 nM enzyme, 0.5 μCi of [α-^33P]GTP, 0.6 μM GTP, and 250 nM 5′biotinylated oligo (rG13)/poly rC in 20 mM Tris-HCl, pH 7.5, 5 mM MgCl2, 5 mM dithiothreitol, 0.1 g/L bovine serum albumin, and 100 U/mL RNAse inhibitor. The reaction was stopped by aspiration after 75 min at 28° C. and the plate was washed several times. After washing and drying the plate, incorporated radioactivity was counted using a Microbeta scintillation counter. IC50 values were calculated relative to the uninhibited control and inhibition data were fitted to a 4-parameter IC50 equation.

Where [1] appears, read: NS5B polymerase inhibition, 20 nM enzyme, 75 min at 28° C., read-out: IC50.

NS5B polymerase, sequence (P26663 2420-3010): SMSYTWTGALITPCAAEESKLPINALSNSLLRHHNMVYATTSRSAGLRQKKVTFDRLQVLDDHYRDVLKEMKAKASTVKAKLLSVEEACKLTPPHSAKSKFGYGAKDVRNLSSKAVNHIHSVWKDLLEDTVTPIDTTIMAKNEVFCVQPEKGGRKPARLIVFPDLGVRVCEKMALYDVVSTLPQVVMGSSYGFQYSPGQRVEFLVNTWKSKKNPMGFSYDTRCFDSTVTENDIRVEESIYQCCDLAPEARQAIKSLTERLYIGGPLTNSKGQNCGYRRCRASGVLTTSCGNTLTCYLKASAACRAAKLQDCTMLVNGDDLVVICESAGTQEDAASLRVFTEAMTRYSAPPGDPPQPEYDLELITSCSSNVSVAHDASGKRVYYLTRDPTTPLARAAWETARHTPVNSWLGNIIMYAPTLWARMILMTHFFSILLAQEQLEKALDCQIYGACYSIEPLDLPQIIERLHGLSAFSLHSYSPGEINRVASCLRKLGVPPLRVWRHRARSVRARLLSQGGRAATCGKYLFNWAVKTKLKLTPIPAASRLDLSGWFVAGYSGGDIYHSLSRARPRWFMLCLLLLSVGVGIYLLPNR

In the case of `CN(c1ccc2c(c1)S(=O)(=O)N=C(C1=C(O)C3C4C=CC(C4)C3N(Cc3ccc(F)cc3)C1=O)N2)S(C)(=O)=O` (racemic) [Example 39, (rac-di-exo)-N-{3-[3-(4-Fluoro-benzyl)-6-hydroxy-4-oxo-3-aza-tricyclo[6.2.1.0^2,7]undeca-5,9-dien-5-yl]-1,1-dioxo-1,4-dihydro-1λ^6-benzo[1,2,4]thiadiazin-7-yl}-N-methyl-methanesulfonamide], the IC50 under setting [1] was in the range of 1 to 100 µM. Consider `CC(C)CCN1C(=O)C(C2=NS(=O)(=O)c3cc(NS(=O)(=O)C4CC4)ccc3N2)=C(O)C2C3CCC(O3)C21` (racemic) [Example 42, (rac-di-exo)-Cyclopropanesulfonic acid{3-[6-hydroxy-3-(3-methyl-butyl)-4-oxo-11-oxa-3-aza-tricyclo[6.2.1.0^2,7]undec-5-en-5-yl]-1,1-dioxo-1,4-dihydro-1λ^6-benzo[1,2,4]thiadiazin-7-yl}-amide], for which the IC50 under setting [1] fell in the range of 0.02 to 0.1 µM. On to `CC(C)(C)CCN1C(=O)C(C2=NS(=O)(=O)c3cc(NS(=O)(=O)C4CC4)ccc3N2)=C(O)C2C3C=CC(C3)C21` (racemic) [Example 43, (rac-di-exo)-Cyclopropanesulfonic acid{3-[3-(3,3-dimethyl-butyl)-6-hydroxy-4-oxo-3-aza-tricyclo[6.2.1.0^2,7]undeca-5,9-dien-5-yl]-1,1-dioxo-1,4-dihydro-1λ^6-benzo[1,2,4]thiadiazin-7-yl}-amide], for which the IC50 under setting [1] fell in the range of 0.02 to 0.1 µM.

On to `CC(C)CCN1C(=O)C(C2=NS(=O)(=O)c3cc(NS(=O)(=O)C4CC4)ccc3N2)=C(O)C2C3C=CC(C3)C21` (racemic) [Example 45, (rac-di-exo)-Cyclopropanesulfonic acid{3-[6-hydroxy-3-(3-methyl-butyl)-4-oxo-3-aza-tricyclo[6.2.1.0^2,7]undeca-5,9-dien-5-yl]-1,1-dioxo-1,4-dihydro-1λ^6-benzo[1,2,4]thiadiazin-7-yl}-amide], for which, under setting [1], the IC50 was 0.02 to 0.1 µM. As for `O=C1C(C2=NS(=O)(=O)c3cc(NS(=O)(=O)C4CC4)ccc3N2)=C(O)C2C3C=CC(C3)C2N1Cc1ccc(F)cc1` (racemic) [Example 46, (rac-di-exo)-Cyclopropanesulfonic acid{3-[3-(4-fluoro-benzyl)-6-hydroxy-4-oxo-3-aza-tricyclo[6.2.1.0^2,7]undeca-5,9-dien-5-yl]-1,1-dioxo-1,4-dihydro-1λ^6-benzo[1,2,4]thiadiazin-7-yl}-amide], the IC50 under setting [1] was less than 0.02 µM. For the compound `CS(=O)(=O)Nc1ccc2c(c1)S(=O)(=O)N=C(C1=C(O)C3C4CCC(O4)C3N(C3CCCC3)C1=O)N2` (racemic) [Example 48, (rac-di-exo)-N-[3-(3-Cyclopentyl-6-hydroxy-4-oxo-11-oxa-3-aza-tricyclo[6.2.1.0^2,7]undec-5-en-5-yl)-1,1-dioxo-1,4-dihydro-1λ^6-benzo[1,2,4]thiadiazin-7-yl]-methanesulfonamide], under setting [1], the IC50 lay in the range of 0.02 to 0.1 µM.

`CS(=O)(=O)Nc1ccc2c(c1)S(=O)(=O)N=C(C1=C(O)[C@H]3[C@H]4CC[C@H]([C@@H]5C[C@@H]54)[C@H]3N(Cc3ccc(F)cc3)C1=O)N2` (racemic) [Example 51, rac-N-{3-[(1R,2R,7S,8S,9S,11R)-3-[(4-Fluorophenyl)methyl]-6-hydroxy-4-oxo-3-azatetracyclo[6.3.2.0^2,7.0^9,11]tridec-5-en-5-yl]-1,1-dioxo-4H-1λ^6,2,4-benzothiadiazin-7-yl}methanesulfonamide]: the IC50 under setting [1] lay within 0.02 to 0.1 µM. The same measure, in the same setting: the result for `CS(=O)(=O)Nc1ccc2c(c1)S(=O)(=O)N=C(C1=C(O)C3C4CCC(C5CC54)C3N(Cc3ccc(F)cc3)C1=O)N2` (racemic) [Example 52] reads 0.02 to 0.1 µM; that for `CC(C)CCN1C(=O)C(C2=NS(=O)(=O)c3cc(N(C)S(C)(=O)=O)ccc3N2)=C(O)C2C3CCC(O3)C21` (racemic) [Example 59, (rac-di-exo)-N-{3-[6-Hydroxy-3-(3-methyl-butyl)-4-oxo-11-oxa-3-aza-tricyclo[6.2.1.0^2,7]undec-5-en-5-yl]-1,1-dioxo-1,4-dihydro-1λ^6-benzo[1,2,4]thiadiazin-7-yl}-N-methyl-methanesulfonamide], 0.1 to 1 µM. Same read-out and setting: the result for `CS(=O)(=O)Nc1ccc2c(c1)S(=O)(=O)N=C(C1=C(O)C3C(C4CC(O)[C@H]3C4)N(Cc3ccc(F)cc3)C1=O)N2` (stereo in doubt) [Example 67, N-{3-[(1R,2S,7R,8S)-3-(4-Fluoro-benzyl)-6,9-dihydroxy-4-oxo-3-aza-tricyclo[6.2.1.0^2,7]undec-5-en-5-yl]-1,1-dioxo-1,4-dihydro-1λ^6-benzo[1,2,4]thiadiazin-7-yl}-methanesulfonamide] reads less than 0.02 µM. As to `CS(=O)(=O)Nc1ccc2c(c1)S(=O)(=O)N=C(C1=C(O)[C@@H]3[C@@H]4CC[C@@H](C4)[C@@H]3N(Cc3ccc(F)cc3)C1=O)N2` [Example 4, N-{3-[(1S,2S,7R,8R)-3-(4-Fluoro-benzyl)-6-hydroxy-4-oxo-3-aza-tricyclo[6.2.1.0^2,7]undec-5-en-5-yl]-1,1-dioxo-1,4-dihydro-1λ^6-benzo[1,2,4]thiadiazin-7-yl}-methanesulfonamide], the IC50 is less than 0.02 µM. Take `CS(=O)(=O)Nc1ccc2c(c1)S(=O)(=O)N=C(C1=C(O)[C@H]3[C@H]4CC[C@H](C4)[C@H]3N(Cc3ccc(F)cc3)C1=O)N2` [Example 5, N-{3-[(1R,2R,7S,8S)-3-(4-Fluoro-benzyl)-6-hydroxy-4-oxo-3-aza-tricyclo[6.2.1.0^2,7]undec-5-en-5-yl]-1,1-dioxo-1,4-dihydro-1λ^6-benzo[1,2,4]thiadiazin-7-yl}-methanesulfonamide]: the IC50 was 0.1 to 1 µM. The same measure, in the same setting: the figure for `CS(=O)(=O)Nc1ccc2c(c1)S(=O)(=O)N=C(C1=C(O)[C@@H]3[C@H]4CC[C@H](C4)[C@@H]3N(Cc3ccc(F)cc3)C1=O)N2` [Example 6, N-{3-[(1R,2S,7R,8S)-3-(4-Fluoro-benzyl)-6-hydroxy-4-oxo-3-aza-tricyclo[6.2.1.0^2,7]undec-5-en-5-yl]-1,1-dioxo-1,4-dihydro-1λ^6-benzo[1,2,4]thiadiazin-7-yl}-methanesulfonamide] is less than 0.02 µM; for `CS(=O)(=O)Nc1ccc2c(c1)S(=O)(=O)N=C(C1=C(O)[C@H]3[C@@H]4CC[C@@H](C4)[C@H]3N(Cc3ccc(F)cc3)C1=O)N2` [Example 7, N-{3-[(1S,2R,7S,8R)-3-(4-Fluoro-benzyl)-6-hydroxy-4-oxo-3-aza-tricyclo[6.2.1.0^2,7]undec-5-en-5-yl]-1,1-dioxo-1,4-dihydro-1λ^6-benzo[1,2,4]thiadiazin-7-yl}-methanesulfonamide] it is 0.1 to 1 µM.

For `Cc1cc(CN2C(=O)C(C3=NS(=O)(=O)c4cc(NS(C)(=O)=O)ccc4N3)=C(O)[C@H]3[C@@H]2[C@@H]2CC[C@H]3O2)ccc1F` [Example 11, N-{3-[(1S,2R,7S,8R)-3-(4-Fluoro-3-methyl-benzyl)-6-hydroxy-4-oxo-11-oxa-3-aza-tricyclo[6.2.1.0^2,7]undec-5-en-5-yl]-1,1-dioxo-1,4-dihydro-1λ^6-benzo[1,2,4]thiadiazin-7-yl}-methanesulfonamide], the IC50 under setting [1] is less than 0.02 µM.

Regarding `CS(=O)(=O)Nc1ccc2c(c1)S(=O)(=O)N=C(C1=C(O)[C@H]3[C@H]([C@@H]4CC[C@H]3O4)N(Cc3ccc(F)cc3)C1=O)N2` [Example 14, N-{3-[(1S,2R,7S,8R)-3-(4-Fluoro-benzyl)-6-hydroxy-4-oxo-11-oxa-3-aza-tricyclo[6.2.1.0^2,7]undec-5-en-5-yl]-1,1-dioxo-1,4-dihydro-1λ^6-benzo[1,2,4]thiadiazin-7-yl}-methanesulfonamide], the IC50 under setting [1] was less than 0.02 µM. On to `CS(=O)(=O)Nc1ccc2c(c1)S(=O)(=O)N=C(C1=C(O)[C@@H]3[C@H]4CC[C@H](C4)[C@@H]3N(Cc3ccc(F)c(F)c3)C1=O)N2` [Example 16, N-{3-[(1R,2S,7R,8S)-3-(3,4-Difluoro-benzyl)-6-hydroxy-4-oxo-3-aza-tricyclo[6.2.1.0^2,7]undec-5-en-5-yl]-1,1-dioxo-1,4-dihydro-1λ^6-benzo[1,2,4]thiadiazin-7-yl}-methanesulfonamide], for which, under setting [1], the IC50 is less than 0.02 µM.

Take `CN(c1ccc2c(c1)S(=O)(=O)N=C(C1=C(O)[C@@H]3[C@H]4CC[C@H](C4)[C@@H]3N(Cc3ccc(F)c(F)c3)C1=O)N2)S(C)(=O)=O` [Example 17, N-{3-[(1R,2S,7R,8S)-3-(3,4-Difluoro-benzyl)-6-hydroxy-4-oxo-3-aza-tricyclo[6.2.1.0^2,7]undec-5-en-5-yl]-1,1-dioxo-1,4-dihydro-1λ^6-benzo[1,2,4]thiadiazin-7-yl}-N-methyl-methanesulfonamide]: under setting [1], the IC50 lay in the range of 0.02 to 0.1 µM. For the compound `Cc1cc(CN2C(=O)C(C3=NS(=O)(=O)c4cc(N(C)S(C)(=O)=O)ccc4N3)=C(O)[C@@H]3[C@H]4CC[C@H](C4)[C@@H]32)ccc1F` [Example 18, N-{3-[(1R,2S,7R,8S)-3-(4-Fluoro-3-methyl-benzyl)-6-hydroxy-4-oxo-3-aza-tricyclo[6.2.1.0^2,7]undec-5-en-5-yl]-1,1-dioxo-1,4-dihydro-1λ^6-benzo[1,2,4]thiadiazin-7-yl}-N-methyl-methanesulfonamide], the IC50 under setting [1] was in the range of 0.02 to 0.1 µM. The same measure, in the same setting: the figure for `O=C1C(C2=NS(=O)(=O)c3cc(I)ccc3N2)=C(O)[C@@H]2[C@H]3CC[C@H](C3)[C@@H]2N1Cc1ccc(F)cc1` [Example 19, (1R,2S,7R,8S)-3-(4-Fluoro-benzyl)-6-hydroxy-5-(7-iodo-1,1-dioxo-1,4-dihydro-1λ^6-benzo[1,2,4]thiadiazin-3-yl)-3-aza-tricyclo[6.2.1.0^2,7]undec-5-en-4-one] is 1 to 100 µM; for `O=C1C(C2=NS(=O)(=O)c3cc(C4=CCCS4(=O)=O)ccc3N2)=C(O)[C@@H]2[C@H]3CC[C@H](C3)[C@@H]2N1Cc1ccc(F)cc1` [Example 20, (1R,2S,7R,8S)-5-[7-(1,1-Dioxo-4,5-dihydro-1H-1λ^6-thiophen-2-yl)-1,1-dioxo-1,4-dihydro-1λ^6-benzo[1,2,4]thiadiazin-3-yl]-3-(4-fluoro-benzyl)-6-hydroxy-3-aza-tricyclo[6.2.1.0^2,7]undec-5-en-4-one] it is 0.1 to 1 µM.

What is called IC50 is the concentration needed to halve the response being measured.
